The values that follow are results of earlier work, collected in patent US20240148640A1, “TOPICAL OXYBUTYNIN FOR HOT FLASHES” (CELISTA PHARMACEUTICALS LLC, priority 2022, published 2024).

Turning to `CCN(CC)CC#CCOC(=O)C(O)(c1ccccc1)C1CCCCC1` (centres unmarked) [oxybutynin], the “reduction of hot flashes” value (given orally (Leon-Ferre et al., 2020)) was 75%. Also, the “frequency and intensity of hot flashes” value (women with frequent hot flashes, incl. breast cancer survivors on tamoxifen or aromatase inhibitors (Kligman et al., 2010)) is “reduced the frequency and intensity of hot flashes”.
